In patent US12251413B2, “Use of effective part extract of Monochasma savatieri in preparation of drug for treating inflammatory disease or tumor” (Harbin Kanglong Pharmaceutical Co., Ltd., priority 2022, dated 2025) one finds inhibition data, which are given here for 1 molecule.

In this test the test system is TNF-α. As to the kind of experiment: Inhibition of TNF-α secretion by LPS-induced RAW264.7 macrophages (ELISA). It counts as cell-based. Conditions: Mus musculus, RAW264.7, LPS 1 μg/mL, 24 h (Table 1), read-out: TNF-α inhibition rate (%). The text has this: This test example simulated the inflammatory response at a cellular level in vitro, that is, the inflammatory response of mouse peritoneal macrophages (RAW264.7) was induced by lipopolysaccharide (LPS) to produce models of the inflammatory factors, and an inhibitory effect of the effective part extract of Monochasma savatieri on the TNF-α secreted by cells was detected by ELISA, to evaluate an anti-inflammatory effect thereof.
Test reagents were: RAW264.7 cells; a DMEM medium, a 1640 medium (Invitrogen), fetal bovine serum (Gibco); LPS(Sigma); an ELISA kit (ebioscience), and a CCK8 reagent (Taosu, Beijing).
Test samples were: the B2-13, B2-15, B2-16, and B2-16-15 prepared in Example 1; a positive drug: dexamethasone.
Test method: • 1. Cell culture: the RAW264.7 cells were cultured in the 1640+10% FBS at 37° C. with 5% CO2, and the cells were passaged when showing logarithmic growth. When reaching 80% confluency, the cells were plated in a 96-well plate (density: 2×10^4 cells/well) at 100 μL/well, and then incubated at 37° C. with 5% CO2 for 12 h to 18 h. • 2. […]
Evaluation index: an inhibition rate of the inflammatory factor TNF-α. OD values were read at 450 nm and 570 nm, a standard curve was plotted, a concentration of TNF-α in the medium was calculated, and the inhibition rate and inhibitory activity IC50 value of the samples on the TNF-α produced by the cells were calculated. […]
Background: In an ELISA, binding on a coated surface is turned into a signal by an enzyme label.

As for `C[C@@H]1C[C@H]2[C@@H]3CCC4=CC(=O)C=C[C@]4(C)[C@@]3(F)[C@@H](O)C[C@]2(C)[C@@]1(O)C(=O)CO` [Dexamethasone, dexamethasone], the inhibition at 10 µM was determined as 58.7%.

Broadly, the inhibition is the drop in the measured response relative to a control, in per cent.
